Results reported in patent US9687479B2, “Multisubstituted aromatic compounds as serine protease inhibitors” (VERSEON CORPORATION, priority 2013, dated 2017).
pIC50: −log10 of the molar value.

biological target: Human thrombin (Homo sapiens (Human), UniProt P00734); assay: Thrombin protease activity inhibition assay (chromogenic substrate S-2238); type: biochemical; conditions: 3 nM thrombin, 125 μM S-2238, 10 min pre-incubation, RT
Description: The thrombin activity reported herein (e.g., Table A) was obtained as follows. […] Thrombin was assayed in buffer containing 0.05 M Tris (pH 7.4), 0.015 M NaCl and 0.01% PEG-8000. The final concentration of enzyme used was 3 nM thrombin. […] All assays were performed in 96-well microtiter plates at room temperature (RT). […] Inhibitor IC50 values were determined by adding test compound as ten point, three-fold serial dilutions in buffer solution, as known in the art. The plate was read at 10 minutes after substrate addition. The IC50 was calculated by plotting the percent (%) inhibition against compound concentration and fitting the data to a constrained four parameter sigmoidal curve, as known in the art.

SMILES | pIC50
O=C(c1ccccc1)n1nc(-c2cccn(Cc3ccoc3)c2=O)cc1NCc1ccc(Cl)s1 [Cmpd 64, 3-(1-benzoyl-5-[(5-chlorothiophen-2-yl)methyl]amino-1H-pyrazol-3-yl)-1-(furan-3-ylmethyl)-1,2-dihydropyridin-2-one] | > 7.00
COCCn1cccc(-c2cc(NCc3ccc(Cl)s3)n(C(=O)c3ccccc3OC)n2)c1=O [Cmpd 133, 3-(5-[(5-chlorothiophen-2-yl)methyl]amino-1-[(2-methoxyphenyl)carbonyl]-1H-pyrazol-3-yl)-1-(2-methoxyethyl)-1,2-dihydropyridin-2-one] | > 7.00
O=c1c(-c2cc(NCc3ccc(Cl)s3)[nH]n2)cccn1CCN1CCOCC1 [Cmpd 234, 3-(5-[(5-chlorothiophen-2-yl)methyl]amino-1H-pyrazol-3-yl)-1-[2-(morpholin-4-yl)ethyl]-1,2-dihydropyridin-2-one] | 4.00 to 5.00
CN(C)c1cc(-c2cccn(Cc3ccccn3)c2=O)nn1C(=O)c1ccco1 [Cmpd 240, 3-[5-(dimethylamino)-1-[(furan-2-yl)carbonyl]-1H-pyrazol-3-yl]-1-(pyridin-2-ylmethyl)-1,2-dihydropyridin-2-one] | < 4.00
CC(C)(C)C(=O)n1nc(-c2cccn(Cc3ccccc3)c2=O)cc1NCc1ccc(Cl)s1 [Cmpd 43, 1-benzyl-3-(5-[(5-chlorothiophen-2-yl)methyl]amino-1-(2,2-dimethylpropanoyl)-1H-pyrazol-3-yl)-1,2-dihydropyridin-2-one] | > 7.00
O=C(c1ccsc1)n1nc(-c2cccn(Cc3ccncc3)c2=O)cc1NCc1ccc(Cl)s1 [Cmpd 200, 3-(5-[(5-chlorothiophen-2-yl)methyl]amino-1-[(thiophen-3-yl)carbonyl]-1H-pyrazol-3-yl)-1-(pyridin-4-ylmethyl)-1,2-dihydropyridin-2-one] | > 7.00
O=C(c1ccc(N2CCOCC2)cc1)n1nc(-c2cccn(Cc3ccco3)c2=O)cc1NCc1ccc(Cl)s1 [Cmpd 209, 3-(5-[(5-chlorothiophen-2-yl)methyl]amino-1-[4-(morpholin-4-yl)phenyl]carbonyl-1H-pyrazol-3-yl)-1-(furan-2-ylmethyl)-1,2-dihydropyridin-2-one] | > 7.00
Cn1cccc(-c2cc(NCc3ccc(Cl)s3)n(C(=O)C(C)(C)C)n2)c1=O [Cmpd 90, 3-(5-[(5-chlorothiophen-2-yl)methyl]amino-1-(2,2-dimethylpropanoyl)-1H-pyrazol-3-yl)-1-methyl-1,2-dihydropyridin-2-one] | > 7.00
O=C(c1ccc(N2CCOCC2)cc1)n1nc(-c2cccn(Cc3cccnn3)c2=O)cc1NCc1ccc(Cl)s1 [Cmpd 211, 3-(5-[(5-chlorothiophen-2-yl)methyl]amino-1-[4-(morpholin-4-yl)phenyl]carbonyl-1H-pyrazol-3-yl)-1-(pyridazin-3-ylmethyl)-1,2-dihydropyridin-2-one] | > 7.00
COCCn1cccc(-c2cc(NCc3ccc(Cl)s3)n[nH]2)c1=O [Cmpd 220, 3-(5-[(5-chlorothiophen-2-yl)methyl]amino-1H-pyrazol-3-yl)-1-(2-methoxyethyl)-1,2-dihydropyridin-2-one] | 4.00 to 5.00
O=C(c1ccco1)n1nc(-c2cccn(Cc3cccs3)c2=O)cc1NCc1ccc(Cl)s1 [Cmpd 168, 3-(5-[(5-chlorothiophen-2-yl)methyl]amino-1-[(furan-2-yl)carbonyl]-1H-pyrazol-3-yl)-1-(thiophen-2-ylmethyl)-1,2-dihydropyridin-2-one] | > 7.00
O=C(c1cccc2c1OCCO2)n1nc(-c2ccc[nH]c2=O)cc1NCc1ccc(Cl)s1 [Cmpd 108, 3-(5-[(5-chlorothiophen-2-yl)methyl]amino-1-[(2,3-dihydro-1,4-benzodioxin-5-yl)carbonyl]-1H-pyrazol-3-yl)-1,2-dihydropyridin-2-one] | > 7.00
O=C(c1ccsc1)n1nc(-c2cccn(Cc3ccco3)c2=O)cc1NCc1ccc(Cl)s1 [Cmpd 195, 3-(5-[(5-chlorothiophen-2-yl)methyl]amino-1-[(thiophen-3-yl)carbonyl]-1H-pyrazol-3-yl)-1-(furan-2-ylmethyl)-1,2-dihydropyridin-2-one] | > 7.00
COCC(C)(C)C(=O)n1nc(-c2cccn(Cc3ccoc3)c2=O)cc1NCc1ccc(Cl)s1 [Cmpd 99, 3-(5-[(5-chlorothiophen-2-yl)methyl]amino-1-(3-methoxy-2,2-dimethylpropanoyl)-1H-pyrazol-3-yl)-1-(furan-3-ylmethyl)-1,2-dihydropyridin-2-one] | > 7.00
COc1ccc(C(=O)n2nc(-c3ccc[nH]c3=O)cc2NCc2ccc(Cl)s2)c(OC)c1 [Cmpd 121, 3-(5-[(5-chlorothiophen-2-yl)methyl]amino-1-[(2,4-dimethoxyphenyl)carbonyl]-1H-pyrazol-3-yl)-1,2-dihydropyridin-2-one] | > 7.00
COCCn1cccc(-c2cc(NCc3ccc(Cl)s3)n(C(=O)c3ccoc3)n2)c1=O [Cmpd 171, 3-(5-[(5-chlorothiophen-2-yl)methyl]amino-1-[(furan-3-yl)carbonyl]-1H-pyrazol-3-yl)-1-(2-methoxyethyl)-1,2-dihydropyridin-2-one] | < 4.00
O=c1c(-c2cc(NCc3ccc(Cl)s3)n[nH]2)cccn1Cc1cccnc1 [Cmpd 228, 3-(5-[(5-chlorothiophen-2-yl)methyl]amino-1H-pyrazol-3-yl)-1-(pyridin-3-ylmethyl)-1,2-dihydropyridin-2-one] | 5.00 to 6.00
CC(C)(C)C(=O)n1nc(-c2cccn(Cc3ccccn3)c2=O)cc1NCc1ccc(Cl)s1 [Cmpd 82, 3-(5-[(5-chlorothiophen-2-yl)methyl]amino-1-(2,2-dimethylpropanoyl)-1H-pyrazol-3-yl)-1-(pyridin-2-ylmethyl)-1,2-dihydropyridin-2-one] | > 7.00
CC1(C(=O)n2nc(-c3cccn(Cc4ccco4)c3=O)cc2NCc2ccc(Cl)s2)CCOCC1 [Cmpd 150, 3-(5-[(5-chlorothiophen-2-yl)methyl]amino-1-[(4-methyloxan-4-yl)carbonyl]-1H-pyrazol-3-yl)-1-(furan-2-ylmethyl)-1,2-dihydropyridin-2-one] | > 7.00
O=C(c1ccsc1)n1nc(-c2cccn(Cc3cccs3)c2=O)cc1NCc1ccc(Cl)s1 [Cmpd 202, 3-(5-[(5-chlorothiophen-2-yl)methyl]amino-1-[(thiophen-3-yl)carbonyl]-1H-pyrazol-3-yl)-1-(thiophen-2-ylmethyl)-1,2-dihydropyridin-2-one] | > 7.00
O=c1c(-c2cc(NCc3ccc(Cl)s3)[nH]n2)cccn1Cc1ccc(Cl)s1 [Cmpd 42, 1-[(5-chlorothiophen-2-yl)methyl]-3-(5-[(5-chlorothiophen-2-yl)methyl]amino-1H-pyrazol-3-yl)-1,2-dihydropyridin-2-one] | < 4.00
O=C(c1ccoc1)n1nc(-c2cccn(Cc3ncccn3)c2=O)cc1NCc1ccc(Cl)s1 [Cmpd 178, 3-(5-[(5-chlorothiophen-2-yl)methyl]amino-1-[(furan-3-yl)carbonyl]-1H-pyrazol-3-yl)-1-(pyrimidin-2-ylmethyl)-1,2-dihydropyridin-2-one] | > 7.00
COc1ccccc1C(=O)n1nc(-c2cccn(Cc3cccc(Cl)c3)c2=O)cc1NCc1ccc(Cl)s1 [Cmpd 32, 1-[(3-chlorophenyl)methyl]-3-(5-[(5-chlorothiophen-2-yl)methyl]amino-1-[(2-methoxyphenyl)carbonyl]-1H-pyrazol-3-yl)-1,2-dihydropyridin-2-one] | > 7.00
